Measurements published in patent publication US6479044B1, “Antibacterial solution” (Colgate-Palmolive Company, priority 2001, dated 2002).

Experiment: Resistance to rinse by colorimetry (Indigotine dye revelation, chromameter)
Assay type: physicochemical
Details: 50 μl on ceramic tile, rinsed 2×10 ml deionized water, Indigotine dye 0.033%
Procedure: Methodology: 50 μl of each solution in deionized water is deposited on a ceramic tile 2.5 cm×2.5 cm. After drying at room temperature, the treated tiles are rinsed with 2×10 ml deionized water. The revelation is then performed with 200 μl lndigotine dye ex. Wackherr (Cl 73015) at 0.033% in deionized water (3 minutes contact). After removing the excess of dye with 10 ml deionized water and drying of the surface, the coloration intensity is measured with a chromameter (Minolta CR200™). The higher the ΔE, the higher the difference of coloration versus the reference tile (no treatment, no contact with the dye). The coloration is the signal of the persistence of the PHMB on the surface after rinsing.

ΔE (coloration versus reference tile): 0.5
SMILES: CCCCCCCCCCCCOS(=O)(=O)[O-].[Na+] [SLS 0.1%, sodium lauryl sulfate]
